# Experimental data taken from patent publication US7786141B2 (Vertex Pharmaceuticals Incorporated, priority 2004, dated 2010).
# Columns and labels:
# [1] = biological target: T1, M4 muscarinic receptor (Homo sapiens, UniProt P08173); test: Functional mobilization of intracellular calcium (FLIPR) in M4-CHO cells; format: cell-based; settings: Table 4; for Emax: 100% efficacy is the maximum response obtained with the Carbachol control; for M4 Activity: M4 receptor, calcium mobilization (FLIPR)
# T1 construct: expressed in transfected cells; host or cells: CHO (M4-CHO)
# T1 sequence (P08173 1-479): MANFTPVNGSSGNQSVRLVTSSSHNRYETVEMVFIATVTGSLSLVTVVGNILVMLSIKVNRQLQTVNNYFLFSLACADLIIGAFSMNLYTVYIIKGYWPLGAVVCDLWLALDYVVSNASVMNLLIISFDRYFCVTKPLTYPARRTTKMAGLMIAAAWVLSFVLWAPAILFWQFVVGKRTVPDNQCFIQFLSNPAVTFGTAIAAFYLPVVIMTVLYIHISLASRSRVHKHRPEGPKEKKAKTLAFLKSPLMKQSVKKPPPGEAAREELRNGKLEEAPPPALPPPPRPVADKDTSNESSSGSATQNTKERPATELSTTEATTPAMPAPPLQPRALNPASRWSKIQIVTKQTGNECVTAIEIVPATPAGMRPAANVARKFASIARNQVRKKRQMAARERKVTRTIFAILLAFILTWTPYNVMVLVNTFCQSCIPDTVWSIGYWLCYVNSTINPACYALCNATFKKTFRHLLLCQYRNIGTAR
# Summary of the method: (§1)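 Intracellular calcium rise is measured by FLIPR fluorescence over 60 sec in CHO cells carrying human M1 or M4 receptors. Compounds are tested alone as agonists, or pre-incubated 15 min (or co-applied) ahead of carbachol at its EC80 to detect inhibition.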
# [2] = biological target: T2, M1 muscarinic receptor (Homo sapiens, UniProt P11229); test: Functional mobilization of intracellular calcium (FLIPR) in M1-CHO cells; format: cell-based; settings: Table 4; for Emax: 100% efficacy is the maximum response obtained with the Carbachol control; for M1 Activity: M1 receptor, calcium mobilization (FLIPR)
# T2 construct: expressed in transfected cells; host or cells: CHO (M1-CHO)
# T2 sequence (P11229 1-460): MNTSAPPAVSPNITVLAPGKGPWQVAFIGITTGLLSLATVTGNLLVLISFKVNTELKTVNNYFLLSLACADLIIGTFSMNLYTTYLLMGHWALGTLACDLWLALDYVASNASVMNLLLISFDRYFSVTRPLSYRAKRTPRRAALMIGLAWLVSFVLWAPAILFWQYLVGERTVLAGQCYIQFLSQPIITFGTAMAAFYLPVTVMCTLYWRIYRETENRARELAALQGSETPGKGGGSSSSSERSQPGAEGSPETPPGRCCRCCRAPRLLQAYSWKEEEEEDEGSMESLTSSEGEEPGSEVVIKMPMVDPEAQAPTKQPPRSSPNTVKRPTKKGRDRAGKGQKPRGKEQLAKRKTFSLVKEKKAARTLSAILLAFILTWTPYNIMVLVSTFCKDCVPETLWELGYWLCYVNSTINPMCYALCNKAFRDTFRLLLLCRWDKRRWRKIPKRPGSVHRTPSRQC
# Summary of the method: as §1
Compound,Emax [1] [%],Emax [2] [%],M4 Activity [1],M1 Activity [2]
c1ccc2c(c1)CCCC21CCN(CC2CCCCC2)CC1 [compound 802],25 to 100,25 to 100,–,–
O=C(O)C1CC2(CCN(CC3CCCCC3)CC2)c2ccccc21 (centres unmarked) [compound 803],< 25,< 25,x (activity was measured to be greater than 5.0 μM),x (activity was measured to be greater than 5.0 μM)
Cc1cc(C(=O)N2CCC(N3CCC4(CC3)CN(C(=O)N(C)C)c3ccc(F)cc34)CC2)no1 [compound 804],< 25,< 25,x (activity was measured to be greater than 5.0 μM),x (activity was measured to be greater than 5.0 μM)
CC(CF)OC(=O)N1CC[C@@H](CN2CCC3(CC2)CN(C(=O)N(C)C)c2ccc(F)cc23)C1 (some centres unmarked) [compound 805],25 to 100,25 to 100,xxx (activity was measured to be less than 2.0 μM),xxx (activity was measured to be less than 2.0 μM)
CC(=O)N[C@H]1CC2(CCN(CC(=O)N(C)C3CCN(C)CC3)CC2)c2ccccc21 [compound 806],< 25,< 25,x (activity was measured to be greater than 5.0 μM),x (activity was measured to be greater than 5.0 μM)
COC(=O)N1CC[C@H](CN2CCC3(CC2)CN(C(=O)N(C)C)c2ccc(F)cc23)C1 [compound 807],25 to 100,25 to 100,xxx (activity was measured to be less than 2.0 μM),xxx (activity was measured to be less than 2.0 μM)
CCOC(=O)N1CCC(N2CCC3(CC2)CN(c2ccc(F)cc2)c2ccc(F)cc23)CC1 [compound 808],25 to 100,25 to 100,xxx (activity was measured to be less than 2.0 μM),xxx (activity was measured to be less than 2.0 μM)
CCOC(=O)N1C2CCC1CC(N1CCC3(CC[C@H](NS(C)(=O)=O)c4ccccc43)CC1)C2 (some centres unmarked) [compound 809],25 to 100,25 to 100,xxx (activity was measured to be less than 2.0 μM),xxx (activity was measured to be less than 2.0 μM)
CCOC(=O)N1C2CCC1CC(N1CCC3(CC[C@H](NC(C)=O)c4ccccc43)CC1)C2 (some centres unmarked) [compound 810],25 to 100,25 to 100,xxx (activity was measured to be less than 2.0 μM),xxx (activity was measured to be less than 2.0 μM)
CN(C)C(=O)N1CC2(CCN(C3CCN(C(=O)c4ccsc4)CC3)CC2)c2cc(F)ccc21 [compound 812],< 25,25 to 100,x (activity was measured to be greater than 5.0 μM),xx (activity was measured to be between 2.0 μM and 5.0 μM)
Cc1ccc2c(c1)C1(CCN(C3CC4CCC3C4)CC1)CN2C(=O)c1ccccn1 (centres unmarked) [compound 813],< 25,25 to 100,x (activity was measured to be greater than 5.0 μM),x (activity was measured to be greater than 5.0 μM)
COc1ccc(F)cc1N1CCC(N2CCC3(CC2)CN(C(=O)N(C)C)c2ccc(F)cc23)CC1 [compound 814],25 to 100,25 to 100,xx (activity was measured to be between 2.0 μM and 5.0 μM),x (activity was measured to be greater than 5.0 μM)
CN(C)C(=O)CN1CC2(CCN(C[C@@H]3C[C@H]4C=CC3C4)CC2)c2cc(F)ccc21 [compound 815],25 to 100,25 to 100,xxx (activity was measured to be less than 2.0 μM),xx (activity was measured to be between 2.0 μM and 5.0 μM)
C#CCOC(=O)N1CC[C@@H](CN2CCC3(CC2)CN(C(C)=O)c2ccccc23)C1 [compound 816],> 100,> 100,xxx (activity was measured to be less than 2.0 μM),xxx (activity was measured to be less than 2.0 μM)
CC1=C(CCN2CCC3(CC2)C[C@H](NC(=O)c2ccoc2)c2ccccc23)C(C)(C)CCC1 [compound 817],< 25,< 25,x (activity was measured to be greater than 5.0 μM),x (activity was measured to be greater than 5.0 μM)
CC(=O)N[C@H]1CC2(CCN(CC3CCN(C(=O)OC4CCC4)CC3)CC2)c2ccccc21 [compound 818],< 25,< 25,x (activity was measured to be greater than 5.0 μM),x (activity was measured to be greater than 5.0 μM)
CC(=O)N[C@H]1CCC2(CCN(CCC3CCCN(C(=O)OC(C)(C)C)C3)CC2)c2ccccc21 (some centres unmarked) [compound 819],< 25,25 to 100,x (activity was measured to be greater than 5.0 μM),xxx (activity was measured to be less than 2.0 μM)
CCCC#CCOC(=O)N1C2CCC1CC(N1CCC3(CC1)CN(C(C)=O)c1ccccc13)C2 (centres unmarked) [compound 820],25 to 100,25 to 100,xxx (activity was measured to be less than 2.0 μM),xxx (activity was measured to be less than 2.0 μM)
CC(=O)N[C@H]1CC2(CCN([C@@H]3CC4CCC3C4)C2)c2ccc(F)cc21 (some centres unmarked) [compound 821],< 25,25 to 100,x (activity was measured to be greater than 5.0 μM),x (activity was measured to be greater than 5.0 μM)
CCc1cncc(N2CCC(N3CCC4(CC3)CN(C(C)=O)c3ccccc34)CC2)n1 [compound 822],25 to 100,25 to 100,xxx (activity was measured to be less than 2.0 μM),xxx (activity was measured to be less than 2.0 μM)
CC(=O)N[C@H]1CC2(CCN(C3CCCCCC3)C2)c2ccc(F)cc21 (some centres unmarked) [compound 823],25 to 100,25 to 100,xx (activity was measured to be between 2.0 μM and 5.0 μM),xx (activity was measured to be between 2.0 μM and 5.0 μM)
CC(=O)N1CC2(CCN(C3CCN(C(=O)O[C@H]4CCOC4)CC3)CC2)c2ccccc21 [compound 824],< 25,25 to 100,x (activity was measured to be greater than 5.0 μM),x (activity was measured to be greater than 5.0 μM)
CCC#CCOC(=O)N1CCC(N2CCC3(CC2)CN(C(C)=O)c2cccc(C)c23)CC1 [compound 825],< 25,25 to 100,x (activity was measured to be greater than 5.0 μM),xxx (activity was measured to be less than 2.0 μM)
O=C1CC2(CCN(CC3CC4C=CC3C4)CC2)c2cc(Cl)ccc21 (centres unmarked) [compound 826],25 to 100,25 to 100,xxx (activity was measured to be less than 2.0 μM),xxx (activity was measured to be less than 2.0 μM)
CCOC(=O)N1C2CCC1CC(N1CCC3(CC1)CN(C(C)=O)c1c(C)cc(C)cc13)C2 (centres unmarked) [compound 827],25 to 100,25 to 100,xxx (activity was measured to be less than 2.0 μM),xxx (activity was measured to be less than 2.0 μM)
CC(=O)NC1CCC2(CCN(CCC3CCCN(C(=O)C(C)(C)C)C3)CC2)c2ccccc21 (centres unmarked) [compound 828],< 25,25 to 100,x (activity was measured to be greater than 5.0 μM),xxx (activity was measured to be less than 2.0 μM)
CC(=O)N1CC2(CCN(C3CCN(C(=O)OCC(F)F)CC3)CC2)c2cc(C)ccc21 [compound 829],25 to 100,25 to 100,xxx (activity was measured to be less than 2.0 μM),xxx (activity was measured to be less than 2.0 μM)
CC(=O)N[C@H]1CC2(CCN(C3CCCC3C)CC2)c2ccccc21 (some centres unmarked) [compound 830],25 to 100,25 to 100,xx (activity was measured to be between 2.0 μM and 5.0 μM),x (activity was measured to be greater than 5.0 μM)
